# Experimental data from patent US6352958B1, “Cycloimido-substituted benzofused heterocyclic herbicides” (FMC Corporation, priority 1997, dated 2002).
# Legend:
# Format in all cases: in vivo
# [1] = tested on: soybean (Glycine max var. Winchester); assay: Postemergence herbicidal activity, soybean; details: rate of application 0.3 Kg/Ha, rated after 12-17 days
# [2] = tested on: field corn (Zea mays var. Pioneer 3732); assay: Postemergence herbicidal activity, corn; details: rate of application 0.3 Kg/Ha, rated after 12-17 days
# [3] = tested on: velvetleaf (Abutilon theophrasti); assay: Preemergence herbicidal activity, velvetleaf; details: Rate of Application 0.3 Kg/Ha, examined after 12-17 days
# [4] = tested on: wheat (Triticum aestivum var. Lew); assay: Preemergence herbicidal activity, wheat; details: Rate of Application 0.3 Kg/Ha, examined after 12-17 days
# [5] = tested on: blackgrass (Aloepecurus myosuroides); assay: Preemergence herbicidal activity, blackgrass; details: Rate of Application 0.3 Kg/Ha, examined after 12-17 days
# Description: The benzofused heterocyclic compounds of this invention were tested for pre- and postemergence herbicidal activity using a variety of crops and weeds. The test plants included soybean (Glycine max var. Winchester), field corn (Zea mays var. Pioneer 3732), wheat (Triticum aestivum var. Lew), morningglory (Ipomea lacunosa or Ipomea hederacea), velvetleaf (Abutilon theophrasti), green foxtail (Setaria viridis), Johnsongrass (Sorghum halepense), blackgrass (Aloepecurus myosuroides), common chickweed (Stellaria media), and common cocklebur (Xanthium strumarium L.).
# For preemergence testing, two disposable fiber flats (8 cm×15 cm×25 cm) for each rate of application of each candidate herbicide were filled to an approximate depth of 6.5 cm with steam-sterilized sandy loam soil. The soil was leveled and impressed with a template to provide five evenly spaced furrows 13 cm long and 0.5 cm deep in each flat. Seeds of soybean, wheat, corn, green foxtail, and johnsongrass were planted in the furrows of the first flat, and seeds of velvetleaf, morningglory, common chickweed, cocklebur, and blackgrass were planted in the furrows of the second flat. The five-row template was employed to firmly press the seeds into place. A topping soil of equal portions of sand and sandy loam soil was placed uniformly on top of each flat to a depth of approximately 0.5 cm. Flats for postemergence testing were prepared in the same manner except that they were planted 9-14 days prior to the preemergence flats and were placed in a greenhouse and watered, thus allowing the seeds to germinate and the foliage to develop.
# In both pre- and postemergence tests, a stock solution of the candidate herbicide was prepared by dissolving 0.27 g of the compound in 20 mL of water/acetone (50/50) containing 0.5% v/v sorbitan monolaurate. For an application rate of 3000 g/ha of herbicide a 10 mL portion of the stock solution was diluted with water/acetone (50/50) to 45 mL.
# The preemergence flats were initially subjected to a light water spray. The four flats were placed two by two along a conveyor belt (i.e., the two preemergence followed by the two postemergence flats). The conveyor belt fed under a spray nozzle mounted about ten inches above the post-emergent foliage. The preemergent flats were elevated on the belt so that the soil surface was at the same level below the spray nozzle as the foliage canopy of the postemergent plants. The spray of herbicidal solution was commenced and once stabilized, the flats were passed under the spray at a speed to receive a coverage equivalent of 100 L/ha. At this coverage the application rates are those shown in the above table for the individual herbicidal solutions. The preemergence flats were watered immediately thereafter, placed in the greenhouse and watered regularly at the soil surface. The postemergence flats were immediately placed in the green-house and not watered until 24 hours after treatment with the test solution. Thereafter they were regularly watered at ground level. After 12-17 days the plants were examined and the phytotoxicity data were recorded.
# Phytotoxicity data were taken as percent control. Percent control was determined by a method similar to the 0 to 100 rating system disclosed in “Research Methods in Weed Science,” 2nd ed., B. Truelove, Ed.; Southern Weed Science Society; Auburn University, Auburn, Ala., 1977.
# [6] = tested on: wheat (Triticum aestivum var. Lew); assay: Postemergence herbicidal activity, wheat; details: rate of application 0.3 Kg/Ha, rated after 12-17 days
# [7] = tested on: green foxtail (Setaria viridis); assay: Preemergence herbicidal activity, green foxtail; details: Rate of Application 0.3 Kg/Ha, examined after 12-17 days
# [8] = tested on: morningglory (Ipomea lacunosa or Ipomea hederacea); assay: Preemergence herbicidal activity, morningglory; details: Rate of Application 0.3 Kg/Ha, examined after 12-17 days
# [9] = tested on: field corn (Zea mays var. Pioneer 3732); assay: Preemergence herbicidal activity, corn; details: Rate of Application 0.3 Kg/Ha, examined after 12-17 days
# [10] = tested on: Johnsongrass (Sorghum halepense); assay: Preemergence herbicidal activity, johnsongrass; details: Rate of Application 0.3 Kg/Ha, examined after 12-17 days
# [11] = tested on: velvetleaf (Abutilon theophrasti); assay: Postemergence herbicidal activity, velvetleaf; details: rate of application 0.3 Kg/Ha, rated after 12-17 days
# [12] = tested on: common chickweed (Stellaria media); assay: Postemergence herbicidal activity, chickweed; details: rate of application 0.3 Kg/Ha, rated after 12-17 days
# [13] = tested on: green foxtail (Setaria viridis); assay: Postemergence herbicidal activity, green foxtail; details: rate of application 0.3 Kg/Ha, rated after 12-17 days
# [14] = tested on: common cocklebur (Xanthium strumarium L.); assay: Postemergence herbicidal activity, cocklebur; details: rate of application 0.3 Kg/Ha, rated after 12-17 days
# [15] = tested on: soybean (Glycine max var. Winchester); assay: Preemergence herbicidal activity, soybean; details: Rate of Application 0.3 Kg/Ha, examined after 12-17 days
# [16] = tested on: common chickweed (Stellaria media); assay: Preemergence herbicidal activity, chickweed; details: Rate of Application 0.3 Kg/Ha, examined after 12-17 days
# [17] = tested on: Johnsongrass (Sorghum halepense); assay: Postemergence herbicidal activity, johnsongrass; details: rate of application 0.3 Kg/Ha, rated after 12-17 days
# [18] = tested on: morningglory (Ipomea lacunosa or Ipomea hederacea); assay: Postemergence herbicidal activity, morningglory; details: rate of application 0.3 Kg/Ha, rated after 12-17 days
# [19] = tested on: common cocklebur (Xanthium strumarium L.); assay: Preemergence herbicidal activity, cocklebur; details: Rate of Application 0.3 Kg/Ha, examined after 12-17 days
Structure (SMILES),Postemergence herbicidal activity (% control) SOY [1] [%],Postemergence herbicidal activity (% control) CRN [2] [%],PREEMERGENCE HERBICIDAL ACTIVITY (% CONTROL) ABUTH [3] [%],PREEMERGENCE HERBICIDAL ACTIVITY (% CONTROL) WHT [4] [%],PREEMERGENCE HERBICIDAL ACTIVITY (% CONTROL) ALOMY [5] [%],Postemergence herbicidal activity (% control) WHT [6] [%],PREEMERGENCE HERBICIDAL ACTIVITY (% CONTROL) SETVI [7] [%],PREEMERGENCE HERBICIDAL ACTIVITY (% CONTROL) IPOSS [8] [%],PREEMERGENCE HERBICIDAL ACTIVITY (% CONTROL) CRN [9] [%],PREEMERGENCE HERBICIDAL ACTIVITY (% CONTROL) SORHA [10] [%],Postemergence herbicidal activity (% control) ABUTH [11] [%],Postemergence herbicidal activity (% control) STEME [12] [%],Postemergence herbicidal activity (% control) SETVI [13] [%],Postemergence herbicidal activity (% control) XANPE [14] [%],PREEMERGENCE HERBICIDAL ACTIVITY (% CONTROL) SOY [15] [%],PREEMERGENCE HERBICIDAL ACTIVITY (% CONTROL) STEME [16] [%],Postemergence herbicidal activity (% control) SORHA [17] [%],Postemergence herbicidal activity (% control) IPOSS [18] [%],PREEMERGENCE HERBICIDAL ACTIVITY (% CONTROL) XANPE [19] [%]
CC(=O)N(C(C)=O)c1nc2c(-n3c(=O)cc(C(F)(F)F)n(C)c3=O)c(F)cc(Br)c2o1 [Compound 100],85,60,100,30,60,40,50,100,80,70,90,50,30,50,40,20,40,100,–
Cn1c(C(F)(F)F)cc(=O)n(-c2ccc(Cl)c3cc(C(N)=O)oc23)c1=O [Compound 269],90,70,100,30,70,40,100,100,80,75,100,80,70,–,60,100,60,80,100
CC(=O)Nc1nc2c(-n3c(=O)cc(C(F)(F)F)n(C)c3=O)c(F)cc(Br)c2o1 [Compound 43],80,70,100,40,60,30,70,100,80,80,100,70,50,50,50,10,50,100,–
Cn1c(C(F)(F)F)cc(=O)n(-c2c(F)cc(Cl)c3[nH]c(C(F)F)nc23)c1=O [Compound 364],95,80,100,60,80,40,100,100,80,80,100,100,100,100,100,100,100,100,100
Cn1c(C(F)(F)F)cc(=O)n(-c2c(F)cc(Br)c3oc(COc4ccccc4)nc23)c1=O [Compound 99],80,80,100,50,60,40,100,100,60,65,100,95,70,70,40,100,65,100,–
CC(=O)OC(C)c1cc2c(Cl)cc(F)c(-n3c(=O)cc(C(F)(F)F)n(C)c3=O)c2o1 (centres unmarked) [Compound 246],95,100,100,100,100,100,100,100,100,100,100,100,100,100,100,100,100,100,100
COCc1nc2c(-n3c(=O)cc(C(F)(F)F)n(C)c3=O)c(F)cc(Br)c2o1 [Compound 96],100,90,100,90,90,90,100,100,95,95,100,100,100,100,100,100,100,100,–
